According to patent US20020156094A1, “Sulfonamide interleukin-1beta converting enzyme inhibitors” (Warner-Lambert Company, priority 1996, published 2002):
Where “and” joins values, the source holds several entries; their conditions need not be identical. Equal values may be shown once.

Assays:
Format in all cases: biochemical
[1] = target: T1, ICE (interleukin-1β converting enzyme, Caspase-1) (Homo sapiens, UniProt P29466); test: ICE Ki fluorescence assay (Ac-Tyr-Val-Ala-Asp-AMC hydrolysis); conditions: ICE 0.24 nM, 15 μM Ac-Tyr-Val-Ala-Asp-AMC, reversible competitive model
T1 sequence (P29466 120-297 limits assumed): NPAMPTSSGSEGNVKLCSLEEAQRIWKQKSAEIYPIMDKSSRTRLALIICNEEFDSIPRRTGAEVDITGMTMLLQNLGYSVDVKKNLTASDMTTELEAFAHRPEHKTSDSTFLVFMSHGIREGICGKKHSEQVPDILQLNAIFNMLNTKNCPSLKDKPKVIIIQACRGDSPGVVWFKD
T1 sequence (P29466 317-404 limits assumed): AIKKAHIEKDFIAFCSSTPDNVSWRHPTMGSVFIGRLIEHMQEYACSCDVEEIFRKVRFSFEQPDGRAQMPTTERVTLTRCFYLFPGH
Protocol: Substrate hydrolysis is monitored for 300 seconds by observing the fluorescence of released AMC using excitation at 380 nm and emission at 460 nm. Mean rates of substrate hydrolysis are evaluated by linear-regression analysis of the fluorescence vs time traces. To evaluate Ki, plots of percent inhibition vs inhibitor concentration are fit by non-linear regression to a reversible, competitive model: [formula]
Where the competition factor (1+[S]/KM)=2.

[2] = target: T1, ICE (interleukin-1β converting enzyme, Caspase-1); test: ICE Colorimetric Dose-Response (IC50) Assay; conditions: ICE approx. 24 nM, 60 min preincubation, 50 μM Ac-Tyr-Val-Ala-Asp-pNA, 25° C.
Protocol: ICE Colorimetric Dose-Response (IC50) Assay
(§1) Diluted inhibitor stocks are prepared by two-fold serial dilution from a primary stock whose concentration is selected (based on screening results or on prior attempts at IC50 evaluation) to achieve approximately 95% inhibition in the most concentrated well. Aliquots of each dilution are transferred to a microtitre plate in triplicate.
(§2) ICE enzyme is diluted to approximately 24 nM in HGE buffer (100 mM HEPES pH 7.5, 0.5 mM EDTA, 20% glycerol, 0.1% Bovine Serum Albumin (BSA)), and activated by adding dithiothreitol (DTT) to a final concentration of 5 mM. The activated enzyme is then aliquoted into wells containing inhibitor or vehicle, and the plate is preincubated for 60 minutes at ambient temperature. Substrate (Ac-Tyr-Val-Ala-Asp-pNA) is added to each well to a final concentration of 50 μM, and plates are placed in the microtitre plate-reader thermostated to 25° C. Beginning 5 minutes after addition of substrate, absorbance (405 nm) of wells is monitored for 1 hour, and activity is calculated as the mean rate of change in absorbance during this interval.

Ich-2 (Caspase-4) = target: T2, Ich-2 (Caspase-4) (Homo sapiens, UniProt P49662); test: Ich-2 (Caspase-4) Colorimetric Dose-Response (IC50) Assay; conditions: enzyme 64 nM, substrate Ac-Leu-Glu-Val-Asp-pNA
T2 sequence (P49662 81-270 limits assumed): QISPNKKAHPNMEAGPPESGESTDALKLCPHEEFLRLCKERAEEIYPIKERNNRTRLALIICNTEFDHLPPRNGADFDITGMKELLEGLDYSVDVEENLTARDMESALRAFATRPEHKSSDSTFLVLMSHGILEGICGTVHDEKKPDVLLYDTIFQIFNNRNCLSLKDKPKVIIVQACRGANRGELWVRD
T2 sequence (P49662 290-377 limits assumed): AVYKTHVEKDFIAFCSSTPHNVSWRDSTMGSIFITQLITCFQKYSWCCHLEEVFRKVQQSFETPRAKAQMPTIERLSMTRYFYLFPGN
Protocol: as §1, §2
Ich-2 (Caspase-4) Colorimetric Dose-Response (IC50) Assay
Inhibition of Ich-2 enzyme is assayed as described above for ICE, except that enzyme is used at 64 nM, and 60 µM of the Ich-2-specific substrate Ac-Leu-Glu-Val-Asp-pNA is used instead of the ICE substrate Ac-Tyr-Val-Ala-Asp-pNA.

SMILES | Ki [1] | IC50 [2] [µM] | IC50 (Ich-2 (Caspase-4)) [µM]
O=C(O)CC(NC(=O)OCc1ccccc1)C(=O)CNS(=O)(=O)c1ccccc1 (stereo not shown) [Example 2d, 5-Benzenesulfonylamino-3-benzyloxycarbonylamino-4-oxo-pentanoic acid] | 37 µM | 291 | 
O=C(O)CC(NC(=O)OCc1ccccc1)C(=O)CNS(=O)(=O)Cc1ccccc1 (stereo not shown) [Example 2c, 3-Benzyloxycarbonylamino-4-oxo-5-phenylmethanesulfonyl-amino-pentanoic acid] | 18 µM and 14 µM | 168 | 
CC(=O)NC(Cc1ccc(O)cc1)C(=O)NC(CCC(=O)O)C(=O)NC(C(=O)NC(CC(=O)O)C(=O)CNS(=O)(=O)CC12CCC(CC1=O)C2(C)C)C(C)C (stereo not shown) [Example 4e, 3-(2-{2-[2-Acetylamino-3-(4-hydroxy-phenyl)-propionylamino]-4-carboxy-butyrylamino}-3-methyl-butyrylamino)-5-(7,7-dimethyl-2-oxo-bicyclo[2.2.1]hept-1-ylmethanesulfonylamino)-4-oxo-pentanoic acid] | 0.00011 µM | 0.002 | 0.7
O=C(O)C[C@H](NC(=O)CN1CCc2ccccc2C1=O)C(=O)CNS(=O)(=O)c1ccccc1 [Example 5a, 3-(1,2,3,4,-Tetrahydro-1-oxo-isoquinoline-2-yl)acetamino-5-benzenesulfonyl amino-4-oxo-pentanoic acid] | 105 µM | 586 | 
CC(C)C(NC(=O)C(CCC(=O)O)NC(=O)OCc1ccccc1)C(=O)NC(CC(=O)O)C(=O)CNS(=O)(=O)CCc1ccccc1 (stereo not shown) [Example 3b, 3-[2-(2-Benzyloxycarbonylamino-4-carboxy-butyrylamino)-3-methyl-butyrylamino]-4-oxo-5-(2-phenyl-ethanesulfonylamino)-pentanoic acid] | 0.013 µM | 0.025 | 4.2
CC1(C)C2CCC1(CS(=O)(=O)NCC(=O)C(CC(=O)O)NC(=O)OCc1ccccc1)C(=O)C2 [Example 2l, 3-Benzyloxycarbonylamino-5-(7.7-dimethyl-2-oxo-bicyclo[2.2.1]hept-1-(S)-ylmethanesulfonylamino)-4-oxo-pentanoic acid] | 1.4 µM | 28 | 935
CC(C)C(NC(=O)C(CCC(=O)O)NC(=O)CCc1ccccc1)C(=O)NC(CC(=O)O)C(=O)CNS(=O)(=O)CC12CCC(CC1=O)C2(C)C (stereo not shown) [Example 4d] | 0.0016 µM | 0.003 | 1.6
O=C(O)CC(NC(=O)OCc1ccccc1)C(=O)CNS(=O)(=O)CCC1CCCCC1 (stereo not shown) [Example 2g, 3-Benzyloxycarbonylamino-5-(2-cyclohexyl-ethanesulfonylamino)-4-oxo-pentanoic acid] | 33 µM | 136 | 314
O=C(O)CC(NC(=O)OCc1ccccc1)C(=O)CNS(=O)(=O)CC1(F)c2ccccc2-c2ccccc21 (stereo not shown) [Example 2k, 3-Benzyloxycarbonylamino-5-(9-fluoro-9H-fluoren-9-ylmethanesulfonylamino)-4-oxo-pentanoic acid] | 22 µM |  | 
CC(=O)NC(C(=O)NC(CC(=O)O)C(=O)CNS(=O)(=O)C[C@]12CCC(CC1=O)C2(C)C)C(C)C (stereo partly drawn) [Example 4a, 3-(2-Acetylamino-3-methyl-butyrylamino)-5-(7,7-dimethyl-2-oxo-bicyclo [2.2.1]hept-1-(S)-ylmethanesulfonylamino)-4-oxo-pentanoic acid] | 0.27 µM | 7.6 | 
O=C(O)CC(NC(=O)OCc1ccccc1)C(=O)CNS(=O)(=O)c1cccc2ccccc12 (stereo not shown) [Example 2f, 3-Benzyloxycarbonylamino-5-(naphthalene-1-sulfonylamino)-4-oxo-pentanoic acid] | 22 µM | 174 | 1010
O=C(O)CC(NC(=O)OCc1ccccc1)C(=O)CNS(=O)(=O)CCc1ccccc1 (stereo not shown) [Example 2a, 3-Benzyloxycarbonylamino-4-oxo-5-(2-phenylethane-sulfonylamino)-pentanoic acid] | 11 µM | 73 | 
CC(NC(=O)C(NC(=O)OCc1ccccc1)C(C)C)C(=O)NC(CC(=O)O)C(=O)CNS(=O)(=O)CC12CCC(CC1=O)C2(C)C (stereo not shown) [Example 4c, 3-[2-(2-Benzyloxycarbonylamino-3-methyl-butyrylamino)-propionylamino]-5-(7,7-dimethyl-2-oxo-bicyclo[2.2.1]hept-1-ylmethanesulfonylamino)-4-oxo-pentanoic acid] | 0.001 µM | 0.015 | 8.5
CC(C)C(NC(=O)C(CCC(=O)O)NC(=O)CCc1ccccc1)C(=O)NC(CC(=O)O)C(=O)CNS(=O)(=O)CCc1ccccc1 (stereo not shown) [Example 3c, 3-{2-[4-Carboxy-2-(3-phenyl-propionylamino)-butyrylamino]-3-methyl-butyrylamino}-4-oxo-5-(2-phenyl-ethanesulfonylamino)-pentanoic acid] | 0.0051 µM | 0.009 | 3.4
CS(=O)(=O)NCC(=O)C(CC(=O)O)NC(=O)OCc1ccccc1 (stereo not shown) [Example 2e, 3-Benzyloxycarbonylamino-5-methanesulfonylamino-4-oxo-pentanoic acid] | 735 µM | 1830 | 
CC1(C)C2CC[C@]1(CS(=O)(=O)NCC(=O)C(CC(=O)O)NC(=O)OCc1ccccc1)C(=O)C2 (stereo partly drawn) [Example 2i, 3-Benzyloxycarbonylamino-5-(7,7-dimethyl-2-oxo-bicyclo[2.2.1]hept-1-(R)-ylmethanesulfonylamino)-4-oxo-pentanoic acid] | 30.1 µM | 25 | 59
CC1(C)C2CCC1(CS(=O)(=O)NCC(=O)[C@@H](CC(=O)O)NC(=O)OCc1ccccc1)CC2 [Example 2m, (R)-3-Benzyloxycarbonylamino-5-(7,7-dimethyl-bicyclo[2.2.1]hept-1-ylmethane-sulfonylamino)-4-oxo-pentanoic acid] | 2.8 µM | 35.3 | 
O=C(O)CC(NC(=O)OCc1ccccc1)C(=O)CNS(=O)(=O)CC1CCc2ccccc21 (stereo not shown) [Example 2j, 3-Benzyloxycarbonylamino-5-(indan-1-ylmethanesulfonylamino)-4-oxo-pentanoic acid] | 65 µM | 194 | 159
O=C(O)CC(NC(=O)OCc1ccccc1)C(=O)CNS(=O)(=O)CCc1cccc2ccccc12 (stereo not shown) [Example 2h, 3-Benzyloxycarbonylamino-5-(2-naphthalen-1-yl-ethanesulfonylamino)-4-oxo-pentanoic acid] | 16 µM | 55.6 | 199
CC(=O)NC(Cc1ccc(O)cc1)C(=O)NC(CCC(=O)O)C(=O)NC(C(=O)NC(CC(=O)O)C(=O)CNS(=O)(=O)CCc1ccccc1)C(C)C (stereo not shown) [Example 3d] | 0.0078 µM | 0.003 | 0.9
O=C(O)CC(NC(=O)CN1CCc2ccccc2C1=O)C(=O)CNS(=O)(=O)Cc1ccccc1 (stereo not shown) [Example 5d, 4-Oxo-3-[2-(1-oxo-3,4-dihydro-1H-isoquinolin-2-yl)-acetylamino]-5-phenylmethanesulfonylamino-pentanoic acid] | 27 µM | 234 | 
O=C(O)C[C@H](NC(=O)CN1CCc2ccccc2C1=O)C(=O)CNS(=O)(=O)CCc1ccccc1 [Example 5c, (S)-4-Oxo-3-[2-(1-oxo-3,4-dihydro-1H-isoquinolin-2-yl)-acetylamino]-5-(2-phenyl-ethanesulfonylamino)-pentanoic acid] | 45 µM | 371 | 
O=C(O)C[C@H](NC(=O)CN1CCc2ccccc2C1=O)C(=O)CNS(=O)(=O)CC12CCC(CC1)C2 [Example 5b, (S)-5-(Bicyclo[2.2.1]hept-1-ylmethanesulfonylamino)-4-oxo-3-[2-(1-oxo-3,4-dihydro-1H-isoquinolin-2-yl)-acetylamino]-pentanoic acid] | 20 µM | 165 | 252
